Test results published in patent US10370343B2, “[6,6] Fused bicyclic HDAC8 inhibitors” (FORMA Therapeutics, Inc., priority 2015, dated 2019).

How the values were obtained:
[1] = biological target: T1, Full length human recombinant HDAC8 protein (Homo sapiens, UniProt Q9BY41); experiment: In vitro histone deacetylase assay: enzymatic HDAC8 electrophoretic mobility shift assay; format: biochemical; conditions: electrophoretic mobility shift assay; enzyme 1 nM; 2 μM fluorescently labeled peptide substrate RHKK(Ac)-NH2; 25° C.; 12 concentrations; read-out: HDAC8 IC50
T1 construct: Full length human recombinant HDAC8 protein was expressed in baculoviral system; made in house
T1 sequence (Q9BY41 1-377): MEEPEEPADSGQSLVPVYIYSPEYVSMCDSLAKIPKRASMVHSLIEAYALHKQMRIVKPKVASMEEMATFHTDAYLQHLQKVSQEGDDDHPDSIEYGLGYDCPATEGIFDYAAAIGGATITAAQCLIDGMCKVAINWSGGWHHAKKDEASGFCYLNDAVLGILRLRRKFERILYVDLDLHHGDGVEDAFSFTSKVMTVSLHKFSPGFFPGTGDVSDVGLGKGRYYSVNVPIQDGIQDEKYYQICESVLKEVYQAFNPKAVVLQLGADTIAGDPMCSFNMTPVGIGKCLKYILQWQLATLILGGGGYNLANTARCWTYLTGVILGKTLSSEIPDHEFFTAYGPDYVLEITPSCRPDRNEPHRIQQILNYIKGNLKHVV

[2] = biological target: T2, Recombinant N-terminal GST tag full-length human HDAC8 (Homo sapiens, UniProt Q9BY41); experiment: HDAC8 probe binding assay, time resolved fluorescence (TRF) format; conditions: compounds grouped by IC50 range (Table 2)
T2 construct: Recombinant N-terminal GST tag full-length human HDAC8; purchased SignalChem H90-30G-1000; host or cells: baculovirus in Sf9 insect cells
T2 sequence (Q9BY41 1-377): T1 sequence (Q9BY41 1-377)
Summary of the method: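 IC50 values come from four-parameter logistic fits of percent inhibition, scaled between DMSO (high) and no-enzyme (low) controls. Time-resolved fluorescence (ex 340, em 485/535 nm) was read after 16 h at room temperature. Enzyme was Sf9-expressed full-length human HDAC8 with an N-terminal GST tag, in a probe-binding format.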

Row | Compound | IC50 [1] [nM] | IC50 [2] [nM]
1 | O=C(NO)c1ccc2c(c1)N(Cc1nc3ccccc3o1)C(=O)CO2 [Compound I-288, 4-(benzo[d]oxazol-2-ylmethyl)-N-hydroxy-3-oxo-3,4-dihydro-2H-benzo[b][1,4]oxazine-6-carboxamide] | < 25 | ≤ 25
2 | Cc1ccc2oc(CN3C(=O)COc4ccc(C(=O)NO)cc43)nc2c1 [Compound I-286, N-hydroxy-4-((5-methylbenzo[d]oxazol-2-yl)methyl)-3-oxo-3,4-dihydro-2H-benzo[b][1,4]oxazine-6-carboxamide] | 25 to 100 | 25 to 100
3 | O=C(NO)c1ccc2c(c1)N(c1ccccc1)C(=O)CO2 [Compound I-357, N-hydroxy-3-oxo-4-phenyl-3,4-dihydro-2H-benzo[b][1,4]oxazine-6-carboxamide] | 100 to 1000 | 25 to 100
4 | Cc1ccc2nc(CN3C(=O)C(C)(C)Oc4ccc(C(=O)NO)cc43)oc2c1 [Compound I-292, N-hydroxy-2,2-dimethyl-4-((6-methylbenzo[d]oxazol-2-yl)methyl)-3-oxo-3,4-dihydro-2H-benzo[b][1,4]oxazine-6-carboxamide] | 25 to 100 | 25 to 100
5 | CC1Oc2ccc(C(=O)NO)cc2N(Cc2ccc(S(C)(=O)=O)cc2)C1=O (centres unmarked) [Compound I-152, N-hydroxy-2-methyl-4-(4-(methylsulfonyl)benzyl)-3-oxo-3,4-dihydro-2H-benzo[b][1,4]oxazine-6-carboxamide] | < 25 | ≤ 25
6 | COc1ccc(CN2C(=O)C(CCN)Oc3ccc(C(=O)NO)cc32)cc1 (centres unmarked) [Compound I-104, 2-(2-aminoethyl)-N-hydroxy-4-(4-methoxybenzyl)-3-oxo-3,4-dihydro-2H-benzo[b][1,4]oxazine-6-carboxamide] | 25 to 100 | ≤ 25
7 | O=C(NO)c1ccc2c(c1)N(Cc1ccc(-c3ccccc3)cc1)C(=O)CO2 [Compound I-251, 4-([1,1′-biphenyl]-4-ylmethyl)-N-hydroxy-3-oxo-3,4-dihydro-2H-benzo[b][1,4]oxazine-6-carboxamide] | < 25 | ≤ 25
8 | CC1(C)Oc2ccc(C(=O)NO)cc2N(Cc2nc3cc(Cl)ccc3s2)C1=O [Compound I-296, 4-((5-chlorobenzo[d]thiazol-2-yl)methyl)-N-hydroxy-2,2-dimethyl-3-oxo-3,4-dihydro-2H-benzo[b][1,4]oxazine-6-carboxamide] | < 25 | 25 to 100
9 | O=C(NO)c1ccc2c(c1)N(Cc1nc(-c3ccccc3)sc1Cl)C(=O)CO2 [Compound I-255, 4-((5-chloro-2-phenylthiazol-4-yl)methyl)-N-hydroxy-3-oxo-3,4-dihydro-2H-benzo[b][1,4]oxazine-6-carboxamide] | 25 to 100 | ≤ 25
10 | O=C(NO)c1ccc2c(c1)N(Cc1ccc(Cl)cc1Cl)C(=O)CO2 [Compound I-256, 4-(2,4-dichlorobenzyl)-N-hydroxy-3-oxo-3,4-dihydro-2H-benzo[b][1,4]oxazine-6-carboxamide] | < 25 | ≤ 25
11 | COc1ccc(CN2C(=O)C(C)(C)Oc3ccc(C(=O)NO)cc32)c(F)c1 [Compound I-160, 4-(2-fluoro-4-methoxybenzyl)-N-hydroxy-2,2-dimethyl-3-oxo-3,4-dihydro-2H-benzo[b][1,4]oxazine-6-carboxamide] | < 25 | ≤ 25
12 | COc1cccc(N2C(=O)COc3ccc(C(=O)NO)cc32)c1 [Compound I-358, N-hydroxy-4-(3-methoxyphenyl)-3-oxo-3,4-dihydro-2H-1,4-benzoxazine-6-carboxamide] | 25 to 100 | 25 to 100
13 | O=C(NO)c1ccc2c(c1)N(CC1CCCCC1)C(=O)CO2 [Compound I-149, 4-(cyclohexylmethyl)-N-hydroxy-3-oxo-3,4-dihydro-2H-benzo[b][1,4]oxazine-6-carboxamide] | 25 to 100 | 25 to 100
14 | O=C(NO)c1ccc2c(c1)N(Cc1ccccc1F)CCO2 [Compound I-27, 4-(2-fluorobenzyl)-N-hydroxy-3,4-dihydro-2H-benzo[b][1,4]oxazine-6-carboxamide] | < 25 | 25 to 100
15 | CCCCN1C(=O)COc2ccc(C(=O)NO)cc21 [Compound I-45, 4-butyl-N-hydroxy-3-oxo-3,4-dihydro-2H-benzo[b][1,4]oxazine-6-carboxamide] | 25 to 100 | 25 to 100
16 | CCC1Oc2ccc(C(=O)NO)cc2N(Cc2ccc(OC)cc2)C1=O (centres unmarked) [Compound I-99, 2-ethyl-N-hydroxy-4-(4-methoxybenzyl)-3-oxo-3,4-dihydro-2H-benzo[b][1,4]oxazine-6-carboxamide] | < 25 | ≤ 25
17 | O=C(NO)c1ccc2c(c1)N(Cc1ccc(-n3cccn3)cc1)C(=O)CO2 [Compound I-224, 4-(4-(1H-pyrazol-1-yl)benzyl)-N-hydroxy-3-oxo-3,4-dihydro-2H-benzo[b][1,4]oxazine-6-carboxamide] | < 25 | ≤ 25

Other lines, results leading:

Row | IC50 [1] [nM] | IC50 [2] [nM] | Compound
18 | 25 to 100 | 25 to 100 | O=C(NO)c1ccc2c(c1)N(Cc1c(Cl)cccc1Cl)C(=O)CO2 [Compound I-253, 4-(2,6-dichlorobenzyl)-N-hydroxy-3-oxo-3,4-dihydro-2H-benzo[b][1,4]oxazine-6-carboxamide]
19 | < 25 | ≤ 25 | O=C(NO)c1ccc2c(c1)N(Cc1ccc(SC(F)(F)F)cc1)C(=O)CO2 [Compound I-264, N-hydroxy-3-oxo-4-(4-((trifluoromethyl)thio)benzyl)-3,4-dihydro-2H-benzo[b][1,4]oxazine-6-carboxamide]
20 | < 25 | ≤ 25 | O=C(NO)c1ccc2c(c1)N(Cc1ccc(OC(F)(F)F)cc1)C(=O)CO2 [Compound I-36, N-hydroxy-3-oxo-4-(4-(trifluoromethoxy)benzyl)-3,4-dihydro-2H-benzo[b][1,4]oxazine-6-carboxamide]
21 | 25 to 100 | ≤ 25 | O=C(NO)c1ccc2c(c1)N(Cc1cccc(F)c1)C(=O)CO2 [Compound I-33, 4-(3-fluorobenzyl)-N-hydroxy-3-oxo-3,4-dihydro-2H-benzo[b][1,4]oxazine-6-carboxamide]
22 | < 25 | ≤ 25 | O=C(NO)c1ccc2c(c1)N(Cc1ccc(C(F)(F)F)cc1F)C(=O)CO2 [Compound I-274, 4-(2-fluoro-4-(trifluoromethyl)benzyl)-N-hydroxy-3-oxo-3,4-dihydro-2H-benzo[b][1,4]oxazine-6-carboxamide]
23 | 25 to 100 | 25 to 100 | O=C(NO)c1ccc2c(c1)N(Cc1c(F)cccc1Cl)C(=O)CO2 [Compound I-273, 4-(2-chloro-6-fluorobenzyl)-N-hydroxy-3-oxo-3,4-dihydro-2H-benzo[b][1,4]oxazine-6-carboxamide]
24 | < 25 | ≤ 25 | O=C(NO)c1ccc2c(c1)N(Cc1cc(C(F)(F)F)ccc1Cl)C(=O)CO2 [Compound I-259, 4-(2-chloro-5-(trifluoromethyl)benzyl)-N-hydroxy-3-oxo-3,4-dihydro-2H-benzo[b][1,4]oxazine-6-carboxamide]
25 | < 25 | ≤ 25 | O=C(NO)c1ccc2c(c1)N(Cc1ccc(Cl)cc1)C(=O)CO2 [Compound I-64, 4-(4-chlorobenzyl)-N-hydroxy-3-oxo-3,4-dihydro-2H-benzo[b][1,4]oxazine-6-carboxamide]
26 | < 25 | ≤ 25 | O=C(NO)c1ccc2c(c1)N(Cc1cccc(SC(F)(F)F)c1)C(=O)CO2 [Compound I-263, N-hydroxy-3-oxo-4-(3-((trifluoromethyl)thio)benzyl)-3,4-dihydro-2H-benzo[b][1,4]oxazine-6-carboxamide]
27 | 25 to 100 | 25 to 100 | O=C(NO)c1ccc2c(c1)N(Cc1c(F)cccc1C(F)(F)F)C(=O)CO2 [Compound I-275, 4-(2-fluoro-6-(trifluoromethyl)benzyl)-N-hydroxy-3-oxo-3,4-dihydro-2H-benzo[b][1,4]oxazine-6-carboxamide]
28 | < 25 | ≤ 25 | O=C(NO)c1ccc2c(c1)N(Cc1ccc(F)cc1)C(=O)CO2 [Compound I-37, 4-(4-fluorobenzyl)-N-hydroxy-3-oxo-3,4-dihydro-2H-benzo[b][1,4]oxazine-6-carboxamide]
29 | < 25 | 25 to 100 | O=C(NO)c1ccc2c(c1)N(Cc1ccccc1Cl)C(=O)CO2 [Compound I-147, 4-(2-chlorobenzyl)-N-hydroxy-3-oxo-3,4-dihydro-2H-benzo[b][1,4]oxazine-6-carboxamide]
30 | 25 to 100 | 25 to 100 | CS(=O)(=O)c1cccc(CN2C(=O)COc3ccc(C(=O)NO)cc32)c1 [Compound I-145, N-hydroxy-4-(3-(methylsulfonyl)benzyl)-3-oxo-3,4-dihydro-2H-benzo[b][1,4]oxazine-6-carboxamide]
31 | < 25 | 25 to 100 | O=C(NO)c1ccc2c(c1)N(Cc1ccc3nonc3c1)C(=O)CO2 [Compound I-62, 4-(benzo[c][1,2,5]oxadiazol-5-ylmethyl)-N-hydroxy-3-oxo-3,4-dihydro-2H-benzo[b][1,4]oxazine-6-carboxamide]
